Assay results taken from ChEMBL document CHEMBL1201861, “Genomics of Drug Sensitity in Cancer screening data, Wellcome Trust Sanger Institute”.

Tests used:
MC-CAR = test: cells; type: functional, cell-based, Homo sapiens; details: Homo sapiens, MC-CAR;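 also: growth inhibition of the human MC-CAR cell line, read out by a cell viability assay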
Description: SANGER: Inhibition of human MC-CAR cell growth in a cell viability assay.

CMK = test: cells; type: functional, cell-based, Homo sapiens; details: Homo sapiens, CMK;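 also: growth inhibition of CMK cells, read out as cell viability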
Description: SANGER: Inhibition of human CMK cell growth in a cell viability assay.

YT = test: cells; type: functional, cell-based, Homo sapiens; details: Homo sapiens, YT
Description: SANGER: Inhibition of human YT cell growth in a cell viability assay.

MRK-nu-1 = test: cells; type: functional, cell-based, Homo sapiens; details: Homo sapiens, MRK-nu-1;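 also: cell viability assay measuring growth suppression of human MRK-nu-1 cells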
Description: SANGER: Inhibition of human MRK-nu-1 cell growth in a cell viability assay.

BC1 cell line = test: SANGER: Inhibition of human BC-1 cell growth in a cell viability assay.; type: functional, cell-based; details: Homo sapiens, BC1
MHH-CALL-2 = test: cells; type: functional, cell-based, Homo sapiens; details: Homo sapiens, MHH-CALL-2;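 also: growth inhibition of the cell line, read out in a cell viability assay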
Description: SANGER: Inhibition of human MHH-CALL-2 cell growth in a cell viability assay.

WSU-NHL = test: cells; type: functional, cell-based, Homo sapiens; details: Homo sapiens, WSU-NHL;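 also: growth inhibition of human WSU-NHL cells, read out with a cell viability assay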
Description: SANGER: Inhibition of human WSU-NHL cell growth in a cell viability assay.

HC-1 = test: cells; type: functional, cell-based, Homo sapiens; details: Homo sapiens, HC-1;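 also: growth inhibition of HC-1 cells measured by a cell viability assay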
Description: SANGER: Inhibition of human HC-1 cell growth in a cell viability assay.

L-540 = test: cells; type: functional, cell-based, Homo sapiens; details: Homo sapiens, L-540;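 also: growth inhibition of the human L-540 cell line, read out with a viability assay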
Description: SANGER: Inhibition of human L-540 cell growth in a cell viability assay.

Daudi = test: cells; type: functional, cell-based, Homo sapiens; details: Homo sapiens, Daudi;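 also: growth inhibition of Daudi cells, read out by a viability assay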
Description: SANGER: Inhibition of human Daudi cell growth in a cell viability assay.

NCI-H889 = test: cells; type: functional, cell-based, Homo sapiens; details: Homo sapiens, NCI-H889;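 also: cell growth inhibition of the cell line, read out with a viability assay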
Description: SANGER: Inhibition of human NCI-H889 cell growth in a cell viability assay.

TE-441-T = test: cells; type: functional, cell-based, Homo sapiens; details: Homo sapiens, TE-441-T
Description: SANGER: Inhibition of human TE-441-T cell growth in a cell viability assay.

THP-1 = test: cells; type: functional, cell-based, Homo sapiens; details: Homo sapiens, THP-1;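 also: growth inhibition of THP-1 cells, read out via a cell viability assay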
Description: SANGER: Inhibition of human THP-1 cell growth in a cell viability assay.

NCI-H1417 = test: cells; type: functional, cell-based, Homo sapiens; details: Homo sapiens, NCI-H1417;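 also: human NCI-H1417 cells, growth inhibition determined with a cell viability readout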
Description: SANGER: Inhibition of human NCI-H1417 cell growth in a cell viability assay.

NCI-H1694 = test: cells; type: functional, cell-based, Homo sapiens; details: Homo sapiens, NCI-H1694;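 also: cell viability assay measuring inhibition of growth in human NCI-H1694 cells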
Description: SANGER: Inhibition of human NCI-H1694 cell growth in a cell viability assay.

NCI-H524 = test: cells; type: functional, cell-based, Homo sapiens; details: Homo sapiens, NCI-H524;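 also: growth inhibition of human NCI-H524 cells, read out through a cell viability assay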
Description: SANGER: Inhibition of human NCI-H524 cell growth in a cell viability assay.

Measured: IC50

C=CC(=O)N1CCCC(Nc2nc(Nc3ccc(N(C)C(=O)CC)cc3)nc3[nH]cnc23)C1 (stereo not drawn)
> 10200 nM: all assays above

COc1ccc(N(C(=O)Oc2c(C)cccc2C)c2ccnc(Nc3ccc(N4CCN(C)CC4)cc3)n2)c(OC)c1
4720 nM: MRK-nu-1
714 nM: Daudi
> 5120 nM: all other assays above

Cc1cc(N2CCOCC2)cc2[nH]c(-c3c(NC[C@@H](O)c4cccc(Cl)c4)cc[nH]c3=O)nc12
745 nM: CMK
> 5120 nM: all other assays above

NC(=O)c1cccc(-c2cc(Nc3ccc(OC(F)(F)F)cc3)ncn2)c1
> 1280 nM: all assays above

CC(C)C[C@H](NC(=O)[C@H](Cc1ccccc1)NC(=O)c1cnccn1)B(O)O [BORTEZOMIB]
0.975 nM: HC-1
1.37 nM: L-540
5.51 nM: NCI-H1417
7.58 nM: NCI-H1694
1.29 nM: CMK
1.22 nM: Daudi
2.31 nM: BC1 cell line
> 20 nM: all other assays above

C[C@@H](Oc1cc(-c2cnn(C3CCNCC3)c2)cnc1N)c1c(Cl)ccc(F)c1Cl [CRIZOTINIB]
683 nM: MHH-CALL-2
1960 nM: CMK
> 2000 nM: all other assays above

Nc1ccccc1NC(=O)c1ccc(CNC(=O)OCc2cccnc2)cc1 [ENTINOSTAT]
432 nM: MRK-nu-1
554 nM: NCI-H524
4130 nM: NCI-H1694
434 nM: BC1 cell line
505 nM: HC-1
1250 nM: MHH-CALL-2
357 nM: CMK
130 nM: NCI-H1417
777 nM: Daudi
1110 nM: L-540
> 5000 nM: all other assays above

Cc1ccc(NC(=O)c2ccc(CN3CCN(C)CC3)cc2)cc1Nc1nccc(-c2cccnc2)n1 [IMATINIB]
> 2000 nM: all assays above
